Reference: patent US8575185B2, “Compositions, synthesis, and methods of utilizing quinazolinedione derivatives” (Reviva Pharmaceuticals, Inc., priority 2009, dated 2013)
Where a name gives a salt, the structure may show the parent alone.

What was measured:
[1] = target: T1, dopamine-D2 short (D2S) receptor (Homo sapiens, UniProt P14416); assay: Dopamine, D2s (Human Recombinant) Binding Assay; settings: human recombinant in CHO cells, [3H]Spiperone
T1 construct: expressed in transfected cells; host or cells: CHO cells
Protocol: Dopamine, D2s (Human Recombinant) Binding Assay
Receptor Source Human recombinant expressed in CHO cells
Radioligand: [^3H]Spiperone (20-60 Ci/mmol)
Control Compound Haloperidol
Incubation Conditions The reactions were carried out in 50 mM TRIS-HCl (pH 7.4) containing 120 mM NaCl, 5 mM KCl, 5 mM MgCl2, 1 mM EDTA for 60 minutes at 25 C. The reaction was terminated by rapid vacuum filtration onto glass fiber filters. Radioactivity trapped onto the filters was determined and compared to control values in order to ascertain any interactions of test compounds with the cloned dopamine-D2 short binding site (Literature Reference: Jarvis, K. R. et al. Journal of Receptor Research 1993, 13(1-4), 573-590; Gundlach, A. L. et al. Life Sciences 1984, 35, 1981-1988.)
(§1) The radioligand binding assays for dopamine-D2S, serotonin-5HT1A and serotonin-5HT2A were carried out at six different concentrations and the test concentrations were 0.5 nM, 1 nM, 10 nm, 100 nM, 300 nM and 1000 nM.

[2] = target: T2, serotonin 5-HT1A receptor (Homo sapiens, UniProt P08908); assay: Serotonin, 5HT1A (Human Recombinant) Binding Assay; settings: human recombinant in HEK-293 cells, [3H]-8-OH-DPAT
T2 construct: expressed in transfected cells; host or cells: HEK-293 cells
T2 sequence (P08908 1-422): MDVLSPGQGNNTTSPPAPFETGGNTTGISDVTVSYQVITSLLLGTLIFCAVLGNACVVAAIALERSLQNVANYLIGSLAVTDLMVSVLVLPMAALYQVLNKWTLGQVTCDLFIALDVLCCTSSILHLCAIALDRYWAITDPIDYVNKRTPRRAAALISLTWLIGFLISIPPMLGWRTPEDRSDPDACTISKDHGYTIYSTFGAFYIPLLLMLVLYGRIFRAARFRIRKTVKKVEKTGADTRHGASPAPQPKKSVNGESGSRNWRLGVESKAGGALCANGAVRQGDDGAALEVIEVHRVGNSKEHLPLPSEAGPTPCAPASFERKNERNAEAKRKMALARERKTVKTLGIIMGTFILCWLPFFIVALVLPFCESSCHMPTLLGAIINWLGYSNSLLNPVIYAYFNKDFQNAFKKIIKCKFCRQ
Protocol: Serotonin, 5HT1A (Human Recombinant) Binding Assay
Receptor Source Human recombinant expressed in HEK-293 cells
Radioligand: [^3H]-8-OH-DPAT (221 Ci/mmol)
Control Compound: 8-OH-DPAT
Incubation Conditions The reactions were carried out in 50 mM TRIS-HCl (pH 7.4) containing 10 mM MgSO4, 0.5 mM EDTA and 0.1% Ascorbic acid at room temperature for 1 hour. The reaction was terminated by rapid vacuum filtration onto glass fiber filters. Radioactivity trapped onto the filters was determined and compared to control values in order to ascertain any interactions of test compounds with the cloned serotonin-5HT1A binding site (Literature Reference: Hoyer, D. et al. Eur. Journal Pharmacol. 1985, 118, 13-23; Schoeffter, P. and Hoyer, D. Naunyn-Schmiedeberg's Arch. Pharmac. 1989, 340, 135-138)
as §1

[3] = target: T3, serotonin 5-HT2A receptor (Homo sapiens, UniProt P28223); assay: Serotonin, 5HT2a (Human) Binding Assay; settings: human cortex, [3H]-Ketanserin
T3 construct: Receptor Source Human Cortex; from tissue; host or cells: human cortex
Protocol: Serotonin, 5HT2a (Human) Binding Assay
Receptor Source Human Cortex
Radioligand: [^3H]-Ketanserin (60-90 Ci/mmol)
Control Compound Ketanserin
Incubation Conditions: The reactions were carried out in 50 mM TRIS-HCl (pH 7.6) at room temperature for 90 minutes. The reaction was terminated by rapid vacuum filtration onto glass fiber filters. Radioactivity trapped onto the filters was determined and compared to control values in order to ascertain any interactions of test compounds with the serotonin-5HT2A binding site (Literature Reference: Leysen, J. E. et al. Mol. Pharmacol. 1982, 21, 301-314; Martin, G. R. and Humphrey, P. P. A. Neuropharmacol. 1994, 33(3/4), 261-273.)
as §1

T3 sequence (P28223 whole entry): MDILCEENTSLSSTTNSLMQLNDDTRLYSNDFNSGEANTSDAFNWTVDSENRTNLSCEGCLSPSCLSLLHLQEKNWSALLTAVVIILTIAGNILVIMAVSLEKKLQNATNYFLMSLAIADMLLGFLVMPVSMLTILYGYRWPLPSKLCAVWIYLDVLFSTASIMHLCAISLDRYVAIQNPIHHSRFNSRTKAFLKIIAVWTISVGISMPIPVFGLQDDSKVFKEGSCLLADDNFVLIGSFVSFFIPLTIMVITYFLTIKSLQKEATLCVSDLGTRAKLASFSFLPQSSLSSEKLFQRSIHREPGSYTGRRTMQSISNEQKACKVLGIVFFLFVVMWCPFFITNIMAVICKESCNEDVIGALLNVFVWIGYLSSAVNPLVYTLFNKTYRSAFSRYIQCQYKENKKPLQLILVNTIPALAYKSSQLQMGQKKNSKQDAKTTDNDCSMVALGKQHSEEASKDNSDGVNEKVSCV
T1 sequence (P14416 1-414 isoform P14416-2): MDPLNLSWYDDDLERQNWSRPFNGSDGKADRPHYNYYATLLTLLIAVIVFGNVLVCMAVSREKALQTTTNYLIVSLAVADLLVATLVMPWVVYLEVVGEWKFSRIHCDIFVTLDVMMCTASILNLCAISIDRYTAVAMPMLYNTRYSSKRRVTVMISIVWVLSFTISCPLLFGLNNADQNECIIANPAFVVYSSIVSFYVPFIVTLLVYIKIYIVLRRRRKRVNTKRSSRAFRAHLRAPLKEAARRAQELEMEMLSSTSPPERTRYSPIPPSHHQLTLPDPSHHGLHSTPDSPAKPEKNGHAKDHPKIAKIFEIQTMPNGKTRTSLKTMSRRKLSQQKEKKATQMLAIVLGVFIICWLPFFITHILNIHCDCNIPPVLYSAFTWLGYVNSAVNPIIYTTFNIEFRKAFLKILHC

Row | SMILES | IC50 [1] [nM] | Ki [1] [nM] | IC50 [2] [nM] | Ki [2] [nM] | IC50 [3] [nM] | Ki [3] [nM]
1 | COc1ccccc1N1CCN(CCCCOc2ccc3c(=O)[nH]c(=O)[nH]c3c2)CC1 [Compound 10a, 7-(4-(4-(2-Methoxyphenyl)piperazin-1-yl)butoxy)quinazoline-2,4(1H, 3H)-dione hydrochloride] | 2.5 | 0.74 | 1.09 | 0.66 | 268 | 131
2 | O=c1[nH]c(=O)c2ccc(OCCCCN3CCN(c4cccc(Cl)c4Cl)CC3)cc2[nH]1 [Compound 10b, 7-(4-(4-(2,3-Dichlorophenyl)piperazin-1-yl)butoxy)quinazoline-2,4(1H, 3H)-dione hydrochloride] | 1.35 | 0.43 | 1.63 | 0.99 | 38.3 | 20.4
3 | O=c1[nH]c2ccccc2c(=O)n1CCCCN1CCN(c2cccc(Cl)c2Cl)CC1 [Compound 17b, 3-(4-(4-(2,3-Dichlorophenyl)piperazin-1-yl)butyl)quinazoline-2,4(1H, 3H)-dione hydrochloride] | 6.35 | 1.87 | 0.95 | 0.58 | 82.6 | 40.5
